Values quoted from earlier work, collected in patent US8415299B2, “Methods for improved avian performance” (priority 2004, dated 2013).

Columns and labels:
laying hens = conditions: cited from earlier work
[1] = system: T4 and rT3 deiodination systems; conditions: rat liver homogenates; cited from earlier work

## C[C@]12C[C@H](O)[C@H]3[C@@H](CCC4=CC(=O)CC[C@@]43C)[C@@H]1CC[C@@H]2C(=O)CO [corticosterone]
Laying hens; 20 to 40 mg/kg diet (Wolford et al. 1983)
  Laying hens with cessation of egg production: 98%

## I [iodide]
Laying hens; 5,000 mg/kg diet
  Effect on egg production: cessation of egg production

## CCNC(=O)[C@@H]1CCCN1C(=O)[C@H](CCCNC(=N)N)NC(=O)[C@H](CC(C)C)NC(=O)[C@@H](CC(C)C)NC(=O)[C@H](Cc1ccc(O)cc1)NC(=O)[C@H](CO)NC(=O)[C@H](Cc1c[nH]c2ccccc12)NC(=O)[C@H](Cc1c[nH]cn1)NC(=O)[C@@H]1CCC(=O)N1 [leuprolide acetate]
Laying hens; single i.m. depot injection releasing 60 mcg/kg body weight per day for 30 days
  Body weight: no body weight loss
Laying hens; single i.m. depot injection releasing 60 mcg/kg body weight per day for 30 days, second week (Burke and Attia 1994)
  Egg production: 3.5%

## C=C1C[C@H]2[C@@H]3C=C(C)C4=CC(=O)CC[C@]4(C)[C@H]3CC[C@]2(C)[C@@]1(OC(C)=O)C(C)=O [melengestrol acetate]
Laying hens; 4 or 8 mg per laying hen per day through the feed (Koch et al. 2004)
  Effect on reproductive system: reversible regression of the reproductive system

## [Zn+2] [zinc]
Laying hens; 2,800 mg/kg diet (Johnson and Brake 1992)
  Action on progesterone production in F1 granulosa cells of the ovary: inhibitory action
[1]
  Inhibition of T4 and rT3 deiodination: potent inhibitor
